Measurements taken from ChEMBL document CHEMBL1201862, “PubChem BioAssay data set” (2004).
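Results reflect a 48-hour exposure of cells in 96-well plates to compound at five concentrations. At the GI50, growth is halved.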 Activity calls are given as the source filed them. No stated cut-off is given here; in the data, active = GI50 up to about 1.1 µM and inactive = higher.

Legend:
Assay in all cases: DTP human tumour cell line panel, 48 h
[1] = tested on: 786-0
[2] = tested on: A498
[3] = tested on: A549
[4] = tested on: ACHN
[5] = tested on: CCRF-CEM
[6] = tested on: COLO 205
[7] = tested on: DU-145
[8] = tested on: EKVX
[9] = tested on: HCC 2998
[10] = tested on: HCT-116
[11] = tested on: HCT-15
[12] = tested on: HL-60
[13] = tested on: HOP-62
[14] = tested on: HOP-92
[15] = tested on: HT-29
[16] = tested on: IGROV-1
[17] = tested on: K562
[18] = tested on: KM12
[19] = tested on: LOX IMVI
[20] = tested on: M14
[21] = tested on: MCF7
[22] = tested on: MDA-MB-231
[23] = tested on: MDA-MB-435
[24] = tested on: MDA-N
[25] = tested on: MOLT-4
[26] = tested on: Malme-3M
[27] = tested on: NCI-H226
[28] = tested on: NCI-H23
[29] = tested on: NCI-H460
[30] = tested on: NCI-H522
[31] = tested on: NCI/ADR-RES
[32] = tested on: OVCAR-3
[33] = tested on: OVCAR-4
[34] = tested on: OVCAR-5
[35] = tested on: OVCAR-8
[36] = tested on: PC-3
[37] = tested on: RXF 393
[38] = tested on: SF-268
[39] = tested on: SF-295
[40] = tested on: SF-539
[41] = tested on: SK-MEL-28
[42] = tested on: SK-MEL-2
[43] = tested on: SK-MEL-5
[44] = tested on: SK-OV-3
[45] = tested on: SN12C
[46] = tested on: SNB-19
[47] = tested on: SNB-75
[48] = tested on: SR
[49] = tested on: SW-620
[50] = tested on: T47D
[51] = tested on: TK-10
[52] = tested on: U-251
[53] = tested on: UACC-257
[54] = tested on: UACC-62
[55] = tested on: UO-31
[56] = tested on: RPMI-8226
[57] = tested on: CAKI-1
[58] = tested on: Hs-578T

Measured: GI50

CCOC(=O)c1c(N=P(c2ccccc2)(c2ccccc2)c2ccccc2)nnc(-c2ccccc2)c1-c1ccccc1
inactive: [1] > 100 µM | [2] 25.9 µM | [3] > 100 µM | [4] > 100 µM | [5] > 100 µM | [6] > 100 µM | [7] > 100 µM | [8] > 100 µM | [9] > 100 µM | [10] > 100 µM | [12] > 100 µM | [13] > 100 µM | [14] 5.52 µM | [15] > 100 µM | [16] > 100 µM | [17] > 100 µM | [18] > 100 µM | [19] > 100 µM | [20] > 100 µM | [21] > 100 µM | [22] > 100 µM | [23] > 100 µM | [24] 92.5 µM | [25] > 100 µM | [26] > 100 µM | [27] > 100 µM | [28] > 100 µM | [29] > 100 µM | [30] > 100 µM | [31] > 100 µM | [32] > 100 µM | [33] > 100 µM | [34] > 100 µM | [35] > 100 µM | [36] > 100 µM | [37] 61.1 µM | [38] > 100 µM | [39] > 100 µM | [40] > 100 µM | [41] > 100 µM | [42] 43.8 µM | [43] > 100 µM | [44] > 100 µM | [45] > 100 µM | [46] 71.3 µM | [47] 6.68 µM | [48] > 100 µM | [49] > 100 µM | [50] > 100 µM | [51] > 100 µM | [52] > 100 µM | [53] > 100 µM | [54] > 100 µM | [55] 1.66 µM
> 100 µM: [11]

Cc1ccc(S(=O)(=O)N2CCN3CCN(CCN(C)CCN4CCN(CC4)CCN(S(=O)(=O)c4ccc(C)cc4)CCN(S(=O)(=O)c4ccc(C)cc4)CCN(S(=O)(=O)c4ccc(C)cc4)CCN(S(=O)(=O)c4ccc(C)cc4)CCN4CCN(CCN(C)CCN5CCN(CC5)CCN(S(=O)(=O)c5ccc(C)cc5)CCN(S(=O)(=O)c5ccc(C)cc5)CCN(S(=O)(=O)c5ccc(C)cc5)CC2)CC4)CC3)cc1
inactive: [3] 1.82 µM | [4] 1.79 µM | [8] 2.33 µM | [16] 1.97 µM | [20] 1.95 µM | [21] 1.5 µM | [24] 1.52 µM | [31] > 100 µM | [34] 1.87 µM | [35] 2.1 µM | [36] 1.85 µM | [38] 1.14 µM | [40] 2.06 µM | [43] 1.63 µM | [47] 1.35 µM | [53] 1.77 µM
active: [5] 0.303 µM | [9] 0.766 µM | [12] 0.407 µM | [14] 1.04 µM | [15] 0.208 µM | [17] 0.248 µM | [18] 0.541 µM | [25] 0.437 µM | [29] 0.553 µM | [56] 0.308 µM | [48] 0.254 µM | [49] 1.05 µM | [52] 0.235 µM
1.49 µM: [11]

CC(C)=C=CP(=O)(O)c1ccccc1
inactive: [1] > 100 µM | [2] > 100 µM | [3] > 100 µM | [4] > 100 µM | [57] > 100 µM | [6] > 100 µM | [7] > 100 µM | [8] > 100 µM | [9] > 100 µM | [10] > 100 µM | [12] > 100 µM | [13] > 100 µM | [14] > 100 µM | [15] > 100 µM | [58] > 100 µM | [16] > 100 µM | [17] > 100 µM | [18] > 100 µM | [19] > 100 µM | [20] > 100 µM | [21] > 100 µM | [23] > 100 µM | [24] > 100 µM | [26] > 100 µM | [27] > 100 µM | [28] > 100 µM | [29] > 100 µM | [30] > 100 µM | [31] > 100 µM | [32] > 100 µM | [33] > 100 µM | [34] > 100 µM | [35] > 100 µM | [36] > 100 µM | [38] > 100 µM | [39] > 100 µM | [40] > 100 µM | [41] > 100 µM | [42] > 100 µM | [43] > 100 µM | [44] > 100 µM | [45] > 100 µM | [46] > 100 µM | [47] > 100 µM | [48] > 100 µM | [49] > 100 µM | [50] > 100 µM | [51] > 100 µM | [52] > 100 µM | [53] > 100 µM | [54] > 100 µM
> 100 µM: [11]
